Results as given in PMC10447463, “Data-mining unveils structure–property–activity correlation of viral infectivity enhancing self-assembling peptides” (Nature Communications, 2023).
Like-named read-outs stand apart in the source and are kept apart here.

Tests used:
[1] = test system: HIV-1 infection of TZM-bl cells; assay: HIV-1 infectivity enhancement assay, β-galactosidase luminescence; format: cell-based; conditions: for Log10 Inf. rel. to EF-C: log10 of HIV-1 infection of TZM-bl cells relative to EF-C, Fig S15 source data, asymmetric std dev errors
[2] = format: physicochemical; conditions: ThT fluorescence relative to blank (42.1851851851852 a.u.)
Method: (§1) 4 µL of 1 mg/mL peptide fibrils solution is added to a 20 µL, 50 µM ThT–solution in PBS. The mixture is incubated for 15 min at RT to allow binding of ThT dye with β–sheet rich structures. For reference PBS (4 µL) was added instead of peptide fibril solution. The samples were placed in black UV Star® 384 microliter well–plates (Greiner bio–one). Fluorescence spectra were recorded on an Infinite® M1000 PRO microplate reader (Tecan) at λem = 488 nm upon excitation at λex = 440 nm with 10 nm bandwidths and multiple reads per well (3×3). Measurements were repeated in triplicates and averaged with standard deviation. […] Zeta-Potential. For the determination of the surface charge of aggregated peptides zeta-potential measurements were conducted with a Zetasizer Nano ZS, Malvern Instruments. Unless stated otherwise the peptides were dissolved from DMSO (10 mg/mL) in PBS (pH 7.4) to concentration of 1 mg/mL and incubated for 1d at RT. Just before the measurement the 60 µL of the peptides were further diluted in 600 µL KCl (aq, 1 mM) in a 1 mL disposable folded capillary cells (DTS–1060, Zetasizer Nano series, Malvern). The zeta potential of the peptides was derived from the electrophoretic mobility based on the Smoluchowski formula. All measurements were averaged over two individually performed experiments and conducted in triplicates for each sample. Aggregate analysis. […] Furthermore, fluorescence microscopy was conducted by staining 1 µL preformed fibrils (1 mg/mL) with 9 µL ThT (50 µM). Brightfield microscopy was performed simultaneously to evaluate aggregation also for non ThT-active fibrils. The measurements were performed on a Leica DMi8 microscope with 10x air objective and equipped with a Leica MC170 HD camera with a filter setting λem = 527/30 nm upon excitation at λex = 480/40 nm) and processed with the Leica LASX software. To quantify size and number of microscopic aggregation of particles > 10 µm^2 at least 3 independently measured images were analyzed via the 3D object counter analysis tool of ImageJ, v 1.53f51. Sum–frequency generation. The SFG experiments were carried out with a femtosecond Ti: Sapphire amplified laser system (Spitfire Ace, Spectra–Physics, 800 nm, 40 fs, 1 kHz) with 5 W output power. We used 2 W to pump an optical parametric amplifier (TOPAS, light conversion) with a non–collinear difference frequency generation stage to generate broadband IR pulses. Another 1 W of the laser output passed through an etalon to generate narrowband visible pulses (10 cm^-1). The incident angles of the visible and IR beams were 36° and 41° with respect to the surface normal, respectively. The visible (13 µJ) and IR (5 µJ) pulses were overlapped spatially and temporally at the sample position. Subsequently, the generated SFG pulse was guided into a spectrograph (Acton SP 300i, Princeton Instruments), and detected with an EMCCD (Newton, Andor Technology). To avoid IR absorption of water vapor, we purged N2 for the measurement. All spectra were collected in the ssp (denoting s-, s- and p-polarized SFG, visible and IR, respectively) polarization combination. The spectra were normalized to the non–resonant signal taken from z–cut quartz after subtracting a background spectrum.
(§2) 1. Remarks on experimental parameters and bioinformatic descriptors

[3] = Zeta-potential measurement; format: physicochemical; parameters: Zeta-Potential: unit not given here; conditions: for Zeta-pot. / mV: zeta potential of peptide, Fig S15 source data
Method: as §1, with “spectrum. […]” for “spectrum.”

[4] = Turbidity, derived count rate of scattered light; format: physicochemical
Method: as §1, with “spectrum. […]” for “spectrum.”
ways to determine turbidity of samples, this can be via transmittance and via scattering. Transmittance […]
as it is an easy and fast method.10,11 However, transmittance contributes not only from µm-sized aggregates but also nm-sized aggregates such as distinct fibrils, which makes hard to distinguish between fibril formation and micrometer sized aggregation. Although dynamic light scattering is a frequently applied method for determination of particle size, it cannot be conducted in solutions with anisotropic aggregates in micrometer size range, since the Stokes-Einstein relation is only applicable for homogeneous […] spherical particles.12 Further models describing scattering intensity and […]

[5] = format: physicochemical; parameters: key to Fibril / Fibril Formation / TEM 2cat / Fibril: 1 = fibrils present; 0 non-fibrillar structures
Method: For ATR FT–IR spectroscopy measurements, 200 µL of the respective 1 mg/mL PNF solution was lyophilized and the resulting powder used for measurement. All spectra were recorded on a Bruker Tensor 27 spectrometer with a diamond crystal as ATR element (PIKE MiracleTM, spectral resolution 2 cm^-1). Every sample was measured with 64 scans. Data were analyzed with OriginLab software and calculation of β–sheet content was conducted according to a previous report. TEM. For TEM measurements 5 µL of PNF fibrils (1 mg/mL) were placed on copper grids coated with carbon and formvar layer (300 mesh, Plano GmbH). After 10 min incubation time, the grids were staining with 4% uranyl acetate solution for 2.5 min and washed with water. Measurements were performed on a Jeol 1400 electron microscope with 120 kV acceleration voltage. CR Assay. For the determination of the amount of peptide monomer converting into nanostructures the amine reactive dye fluorescamine was used analogous to a previous reported protocol. Briefly, 100 µL of the preformed PNF solution was centrifuged in a Vivaspin 500 tube (3 kDa MWCO) to separate fibers from free peptide monomer (16200 x g, 4 °C, 45 min). The filtrate and 100 μL of the non-filtered PNF sample were lyophilized and dissolved in 30 μL DMSO. 10 μL of the filtrate and non-filtered DMSO samples were submitted in a black UV Star® 384 microliter well–plates (Greiner bio–one) and 3 μL of the fluorescamine solution (10 mg/mL, DMSO) was added to measure the fluorescence enhancement. After 20 min of incubation at RT, fluorescence was recorded on an Infinite® M1000 PRO microplate reader (Tecan) at λem = 470 nm upon excitation at λex = 365 nm with 10 nm bandwidths and multiple reads per well (3×3). Measurements were repeated in triplicates and averaged with standard deviation. All values were calculated as n-fold fluorescence enhancement (DMSO only as a reference was set to 1). The conversion rate CR was defined according to the equation Eq. (3).3 CR=100−100×fluorescenceintensityfiltrate/fluorescenceintensityoriginal[%]
as §2
1.1 Experimental parameters
Transmission electron microscopy (TEM) measurements. TEM measurements were used to control if peptides assemble. The assemblies were categorized in non -fibrillar structures (no assembly, […]
grid but only amorphous aggregates. In contrast, peptides defined as fibrillar may also include amorphous structures. Amongst nonfibrillar assemblies also amorphous aggregates are summarized.
Amorphous aggregates are defined as structures with high β-sheet content which lack long-range order, that is crystallinity or fibril formation. It is generally assumed that these structures might be

[6] = infectivity class (low / medium / high) of each library peptide, main list in c1-c6, same classes repeated in sub-lists of sequences containing the hydrophobicity/charge patterns P+,H0,P+,H0,P0,H0,P0, P+,H0,P0,H0,P0,H0,P0, P+,H0,P0,H0

ILKNLSRSRKIKIQINMWQ [TM92]
Log10 of Rel to EFC (Feb2021) ([1]; Feb2021, Log10 of infectivity relative to EF-C): -0.4939 | Rel-to EFC (Feb-2021) ([1]; Feb2021, n-fold enhancement relative to EF-C): 0.3207 | infectivity [1, 6]: medium | Log10 Inf. rel. to EF-C [1]: -0.4939 | Tht rel to blank (42.1851851851852) [2]: 3.339 | Zeta category ( +1 = if > 4 mV;-1 = if < -4 mV; 0 = -4mV to 4 mV) ([3]; category from zeta potential): 1 (+1 = if > 4 mV) | Zeta Pot. / mV ([3]; mean, Std Zeta in next column): 19.2 mV | Zeta-pot. / mV [3]: 19.2 mV | Zeta Count Rate Category ([4]; category 1 or 0 from count rate, key not given): 1 | Zeta Count Rate / kcps ([4]; derived count rate of scattered light, mean, std deviation in next column): 306.5 kcps

KCQCQCQ
Log10 Infection Rel EF-C ([1]; log10 of infection relative to EF-C, Figure 6C): 0.05949 | Inf. rel. EF-C ([1]; n-fold infection vs virus only, relative to that of EF-C, 1.3 µM peptide): 1.15 | Zeta-Potential / mV ([3]; mean, Figure 6C): 11.83 mV | Count Rate / kcps ([4]; derived count rate of scattered light at 633 nm, 173°, from zeta-potential measurement, 0.1 mg/mL in 1 mM KCl after 1 d at 1 mg/mL in PBS, turbidity / microscopic aggregation, mean of triplicate): 15236 kcps | Log10 Count Rate ([4]; log10 of derived count rate of scattered light, Figure 6C): 4.183 | Log10 Count Rate ([4]; logarithm of count rate in kcps): 4.183 | Fibril / Fibril Formation ([5]; TEM, 1 mg/mL, uranyl acetate stain, qualitative): 1

Lysozyme
Zeta Potential ([3]; mean of n = 3): 4.807 | Zeta-Potential ([3]; replicate 1): 4.05 | Zeta-Potential ([3]; replicate 2): 5.03 | Zeta-Potential ([3]; replicate 3): 5.34 | Count Rate ([4]; derived count rate of scattered light, mean of n = 3): 217.9 kcps | Count Rate ([4]; derived count rate of scattered light, replicate 1): 304.4 kcps | Count Rate ([4]; derived count rate of scattered light, replicate 2): 195.7 kcps | Count Rate ([4]; derived count rate of scattered light, replicate 3): 153.6 kcps

KIEIQINM [NM6]
infectivity ([1]; infectivity class (low / medium / high) of the peptide in the sequence-pattern analysis, Fig. S22-A4, class limits not given): low | Log10 Inf. rel. to EF-C [1]: -1.458 | Zeta-pot. / mV [3]: -0.35 mV

KKFQKKFQ [CN21]
infectivity [1, 6]: low | Log10 Inf. rel. to EF-C [1]: -1.545 | Zeta-pot. / mV [3]: -9.19 mV

HGEHGEHGE [CN7]
infectivity [1, 6]: low | Log10 Inf. rel. to EF-C [1]: -1.72 | Zeta-pot. / mV [3]: -24.2 mV

PPFHPPPFHP [CN22]
infectivity [1, 6]: low | Log10 Inf. rel. to EF-C [1]: -1.751 | Zeta-pot. / mV [3]: -15.8 mV

IKVAVKIKIQINM [TM74]
infectivity [1, 6]: medium | Log10 Inf. rel. to EF-C [1]: -0.3046 | Zeta-pot. / mV [3]: 14.5 mV

EFEFQFNMWQ [JH1]
Zeta category ( +1 = if > 4 mV;-1 = if < -4 mV; 0 = -4mV to 4 mV) [3]: 0 (0 = -4mV to 4 mV) | Zeta category ( +1 = if > 4 mV;-1 = if < -4 mV; 0 = -4mV to 4 mV) ([3]; category derived from the zeta potential): 0 (0 = -4mV to 4 mV) | TEM: 1= fibrils, 0= aggregates (micelle), 0.5 = aggregates and fibrils, -1 = nothing obersved, STD prep [5]: 1 | TEM: 1= fibrils, 0= aggregates (micelle), 0.5 = aggregates and fibrils, -1 = nothing obersved, STD prep ([5]; TEM): 1

CKFQC [CN31]
infectivity [1, 6]: low | Log10 Inf. rel. to EF-C [1]: -1.643 | Zeta-pot. / mV [3]: -17.38 mV
